The NIST ThermoML archive (doi:10.1021/acs.jced.8b00844)
± gives the expanded uncertainty stated by the source.

Legend:
[1] = 298.15 K; 101.33 kPa; Liquid; Vibrating tube method
[2] = refractive index (Na D-line) (dimensionless); conditions: 298.15 K; 101.33 kPa; Liquid; Standard Abbe refractometry

| mass density [1] [kg/m3] | refractive index [2] | Structure (SMILES) |
| --- | --- | --- |
| 867.6 ± 16 | 1.3701 ± 0.012 | CC(=O)OC(C)C [1-methylethyl ethanoate] |
| 781.4 ± 16 | 1.375 ± 0.012 | CC(C)O [propan-2-ol] |
|  | 1.3325 ± 0.012 | O [water] |
